Measurements from the supplement of paper PMC10307832.

Experiments:
Experiment in all cases: relative viability (nuclei count vs DMSO), 5 days (fraction); higher = more cells survive
[1] = compound: CC1=NN=C(O1)C2=NN=C(C=C2)N3CCC(CC3)OC4=C(C=CC(=C4)F)Cl + COc1cccc2cc(-c3nc([C@H]4CC[C@H](C(=O)O)CC4)n4ncnc(N)c34)[nH]c12 [OSI-027] (partner 0.5 µM)
Outline: (§1)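 Lung cancer cell lines were pin-tool dosed in 1536-well plates on the day after seeding, with either a lone drug or a fixed anchor-drug dose plus five library-drug doses (not always all listed) in √10 steps. Nuclei were counted on 4× images after 5 days. Relative viability is the ratio of treated-well to vehicle-well nuclei counts, with each value a median of duplicate plates.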

[2] = compound: CC(C)C[C@@H](C(=O)N[C@H](C(=O)OC1CCCC1)c1ccccc1)[C@H](O)C(=O)NO [Tosedostat] + COc1cc2c(Oc3ccc(NC(=O)C4(C(=O)Nc5ccc(F)cc5)CC4)cc3F)ccnc2cc1OCCCN1CCOCC1 [Foretinib] (partner 0.25 µM)
Outline: as §1

[3] = compound: CC1=NN=C(O1)C2=NN=C(C=C2)N3CCC(CC3)OC4=C(C=CC(=C4)F)Cl + CS(=O)(=O)CCNCc1ccc(-c2ccc3ncnc(Nc4ccc(OCc5cccc(F)c5)c(Cl)c4)c3c2)o1 [Lapatinib] (partner 2 µM)
Outline: as §1

[4] = compound: CC1=NN=C(O1)C2=NN=C(C=C2)N3CCC(CC3)OC4=C(C=CC(=C4)F)Cl + Nc1nc2[nH]cc(CCc3ccc(C(=O)N[C@@H](CCC(=O)O)C(=O)O)cc3)c2c(=O)[nH]1 [Pemetrexed] (partner 0.2 µM)
Outline: as §1

Row | Cell Line | relative viability ([1]; first compound 0.253 µM) | relative viability ([1]; first compound 0.8 µM) | relative viability ([1]; first compound 2.53 µM) | relative viability ([1]; first compound 8 µM) | relative viability ([2]; first compound 0.02 µM) | relative viability ([2]; first compound 0.06325 µM) | relative viability ([2]; first compound 0.2 µM) | relative viability ([2]; first compound 0.6325 µM) | relative viability ([2]; first compound 2 µM) | relative viability ([3]; first compound 0.253 µM) | relative viability ([3]; first compound 0.8 µM) | relative viability ([3]; first compound 2.53 µM) | relative viability ([3]; first compound 8 µM) | relative viability ([4]; first compound 0.253 µM) | relative viability ([4]; first compound 0.8 µM) | relative viability ([4]; first compound 2.53 µM) | relative viability ([4]; first compound 8 µM)
1 | NCI-H2087 | 0.641 | 0.422 | 0.422 | 0.3 | 1.3 | 1.13 | 1.06 | 0.98 | 0.941 | 0.618 | 0.56 | 0.554 | 0.51 | 0.561 | 0.534 | 0.511 | 0.47
2 | NCI-H2126 | 0.626 | 0.589 | 0.756 | 0.661 | 1.12 | 1.27 | 1.25 | 1.07 | 1.12 | 0.552 | 0.759 | 0.702 | 0.699 | 0.69 | 0.607 | 0.635 | 0.606
3 | NCI-H2170 | 0.486 | 0.485 | 0.654 | 0.489 | 1.01 | 1.04 | 0.958 | 0.959 | 1.05 | 0.268 | 0.241 | 0.291 | 0.26 | 0.241 | 0.218 | 0.242 | 0.256
4 | NCI-H2228 | 0.41 | 0.448 | 0.302 | 0.468 | 0.998 | 0.774 | 1.11 | 0.768 | 0.751 | 1.03 | 1.01 | 1.13 | 0.848 | 0.28 | 0.333 | 0.3 | 0.363
5 | NCI-H2347 | – | 0.366 | 0.463 | 0.354 | 0.711 | 0.731 | 1.04 | 0.955 | 0.969 | 0.557 | 0.631 | 0.593 | 0.535 | 0.422 | 0.406 | 0.442 | 0.39
6 | NCI-H2405 | 0.607 | 0.549 | 0.634 | 0.616 | 1.03 | 1.02 | 1.07 | 1.02 | 0.932 | 0.756 | 0.809 | 0.859 | 0.754 | 0.595 | 0.562 | 0.563 | 0.594
7 | NCI-H3122 | 0.359 | 0.384 | 0.418 | 0.348 | 1.01 | 0.901 | 1.01 | 0.967 | 1.07 | 0.519 | 0.675 | 0.52 | 0.449 | 0.138 | 0.142 | 0.16 | 0.143
8 | PC-3 [JPC-3] | 0.691 | 0.619 | 0.655 | 0.681 | 1.01 | 1.02 | 0.997 | 0.778 | 0.65 | 0.404 | 0.453 | 0.445 | 0.432 | 1.05 | 0.816 | 1.06 | 0.791
9 | PC-14 | 0.818 | 0.572 | 0.721 | 0.643 | 0.948 | 0.936 | 0.987 | 0.868 | 0.912 | 0.294 | 0.31 | 0.302 | 0.313 | 0.139 | 0.117 | 0.153 | 0.121
